Source: patent publication US8846331B2, “Asynchronous magnetic bead rotation sensing systems and methods” (The Regents of the University of Michigan, priority 2010, dated 2014)
≈ marks a conversion by molar mass, not a printed value.

Columns and labels:
Format in all cases: cell-based, Escherichia coli
[1] = tested on: uropathogenic E. coli isolate; test: MIC determination with the Vitek 2 system
uropathogenic E. coli [2] = test: AMBR with self-assembled magnetic particle clusters in hanging droplet, MIC measurement; conditions: from FIGS. 47a and 47b, rotational period of clusters
Text: FIGS. 46a-c illustrates one example AMBR using a cluster formed in a well having a curved interface (in this example, a hanging droplet). […] This lensing effect may be used to amplify the rotational signal by magnifying the image through the droplet. […] An LED or laser light may be focused by the droplet curvature, magnifying the ‘image’ of the particle cluster a 100-fold. After the magnification, the rotational period can be observed and measured using a photodetector, thus observing a periodic signal corresponding to the rotational period of the cluster. FIG. 46b illustrates the change in cluster shape/size and rotation. The rotational period of the cluster changes accordingly: as the cluster itself expands (e.g., changing shape to have a larger diameter); as bacteria or other analytes attach to the cluster and/or expand/swell; or as the viscosity of the surrounding fluid changes. Viscosity may change if unbound cells divide and increase in number within the well. The rotational period of the cluster can be measured using the Fast Fourier Transform (FFT). The lower graphs in FIG. 46b show a shift in the peak observing the peak location. […]
The self-assembled magnetic particles shown in FIG. 47a-g enabled rapid MIC measurements, and the determined values agreed with values obtained with the traditional microdilution method. […]

E. coli [3] = test: AMBR 16-well prototype, growth of E. coli on clusters of magnetic particles (FIG. 3d); conditions: 0, 2, 4 and 8 μg/mL antibiotic
Text: FIGS. 3a-f illustrates results from one variation of a multiwell prototype device using a 16-well disposable card. […] FIG. 3b illustrates exemplary results showing raw periodic laser intensity data corresponding to the rotation of the sample for one well; FIG. 3c is an image of a 16 sensor array AMBR system prototype that incorporates low-power lasers and phototransistors to measure rotational data (with black tray that supports the disposable card). FIG. 3d illustrates a graph of antibiotic susceptibility results for averaged and normalized data with E. coli bacteria.
For example, when cell division occurs, a significant portion of the bacteria remain on the surface of the particles. Thus, a more reliable growth response may be detected (as cells are not all shed into the medium). […] Clusters may be readily detected and their rotation more easily optically resolved. […] This allows for response to antibiotics to be measured in a reproducible manner, which makes the technique more clinically relevant. FIGS. 3a-3f illustrate a prototype device that has been used as a proof-of-principle for the rotation of clusters and use of multiwell sample plates. The example shown in FIG. 3a is a 16-well disposable plate. Each well in the plate (which may also be referred to as a “card”) has been treated to contain a single cluster of magnetic particles that rotate as a group. […]

uropathogenic E. coli [4] = test: AMBR droplet microfluidic platform, small cell-population growth response (AST); conditions: for change in rotational period (bacterial growth): monitored minimum one hour
Text: Asynchronous magnetic bead rotation (AMBR) may be performed on hanging droplets and on oil/water emulsions (e.g., droplets of water including the magnetic beads and analyte suspended in oil). For example an AMBR biosensor may use a droplet microfluidic platform that enables single cell and small cell population growth measurements for applications aimed at rapid antimicrobial susceptibility testing (“AST”). […] Growth was observed below the MIC, and no growth was observed above the MIC. A 52% change in the sensor signal (i.e. rotational period) was observed within 15 minutes, thus allowing AST measurements to be performed within minutes.
The microfluidic platform typically forms reproducibly or uniform-sized droplets of aqueous solution (e.g., media) including magnetic particles. […] In this example, the continuous phase consisted of mineral oil with 1% SPAN 80 (v/v). For bead (magnetic particle) characterization experiments, the aqueous phase consisted of PBS solution: PBS with 1% Pluronic F-68 and 0.1% BSA. For biological experiments, the aqueous phase consisted of MH broth solution: MH with 1% Pluronic F-68 and 0.1% BSA, which will be referred to as MH-PB.
In one example, using the microfluidic device described above and in FIGS. 23a and 23b, experiments were conducted on an Olympus IX71 inverted microscope. The microfluidic device was placed inside custom-built electromagnet coils that were integrated on the microscope stage (see, e.g., FIG. 23c). In this example, the rotating magnetic field was generated with a custom LabView program and data acquisition board (NI PCI-6221). The magnetic field driving frequency range was 0.1 Hz to 1 kHz, and the magnetic field strength was 0.9 mT, as measured with a 3-axis magnetic field probe (Senis Gmbh, C-H3A-2m).
Magnetic bead characterization experiments were conducted at 21° C. Single cell experiments were conducted at 21° C., with a 100× oil immersion objective. The magnetic field driving frequency was set at 500 Hz for control and growth experiments. One-minute videos at 15 frames per second (fps) were taken in 5-minute intervals with a digital camera. Small cell-population experiments were conducted at 35° C., with a 40× objective. The microfluidic device was placed on an ITO slide that was heated and maintained at a set temperature, 35+0.2° C. This temperature was monitored by a thermocouple that was coupled to the surface of the slide with a thermally conducting silver paste, Arctic Silver 5 (ARCTIC SILVER). The magnetic field driving frequency for small cell-population control and growth experiments was set at 50 Hz, and continuous videos were taken for a minimum of 5 hours at 2 fps. For small cell-population control and antibiotic response experiments, 1-minute videos were taken at 20 fps in either 5-minute or 20-minute intervals.
As mentioned, movies were captured with a digital camera (Basler, piA640-210 gm). The videos were analyzed using ImageJ (for example, see FIG. 23d). The rotational frequency of the bead complex was determined by monitoring the fluctuations in intensity profile at the target area of interest using ImageJ s ‘plot z-axis profile’ functionality. This intensity plot was analyzed by applying a Fast Fourier Transform (FFT) to the raw ImageJ data in MATLAB. The experimental error in determining the rotational period was designated as the FFT peak's full width at half max (FWHM) of the amplitude signal. […]

E. coli [5] = test: AMBR multiwell card reader, rotational period growth curves (FIG. 9); conditions: FIG. 9, driving frequency 100 Hz
Procedure: FIG. 9 illustrates the rotational period (in seconds) of rotating magnetic beads with attached E. coli versus time (in minutes) for various concentrations of antibiotic (Gentamicin).
A clinical sample (e.g. blood, urine, etc) may be mixed with a Muller-Hinton (MH) or phosphate buffered saline solution that contains magnetic beads that are coated with antibodies specific to the pathogen of interest. The bacteria and beads are incubated together to allow for ample time to bind and if necessary, population growth of the bacteria. […] This solution (now containing only […]) is then placed into the disposable (preferably multiwell) plate, where the beads are asynchronously rotated in the card reader for detection/identification and antibiotic susceptibility testing, where the minimum inhibitory concentration will be determined. […] Finally, the magnetic particles are rotated in the asynchronous regime and monitored optically to determine cell growth (elongation and/or division). […]
The asynchronous rotational period of the rotating cluster of magnetic particles may be measured using the light modulation that is produced when each laser beam (or other light) passes through the small magnetic bead cluster. […] From this, the rotation rate can be measured by simply tracking the peak-to-peak distance (period) of the modulated intensity. […]

Compound: [H]/N=C(/N)N[C@H]1[C@H](O)[C@@H](O)[C@H](O[C@@H]2O[C@@H](C)[C@](O)(C=O)[C@H]2O[C@@H]2O[C@@H](CO)[C@H](O)[C@@H](O)[C@@H]2NC)[C@@H](N/C(N)=N\[H])[C@@H]1O [streptomycin]
- MIC ([1]; Escherichia coli, isolate of the magnetic particle cluster experiments (FIGS. 47a-b), read-out: clinical (reference) MIC as determined with Vitek 2): 16 µg/mL (≈ 27.5 µM)
- MIC (uropathogenic E. coli [2]; Escherichia coli, read-out: MIC measured with AMBR clusters): 8 µg/mL (≈ 13.8 µM)

Compound: CC1(C)S[C@@H]2[C@H](NC(=O)[C@H](N)c3ccccc3)C(=O)N2[C@H]1C(=O)O [ampicillin]
- effect on growth of E. coli on clusters (rotational period) (E. coli [3]): acts as a growth accelerating agent

Compound: gentamicin
- change in rotational period (bacterial growth) (uropathogenic E. coli [4]; 0.5 μg/mL gentamicin): increase in rotational period
- change in rotational period (bacterial growth) (uropathogenic E. coli [4]; 2 μg/mL gentamicin): No substantial change in the rotational period
- change in rotational period (bacterial growth) (uropathogenic E. coli [4]; 4 μg/mL gentamicin): No substantial change in the rotational period
- difference in rotational period between bacteria treated above and below the MIC (uropathogenic E. coli [4]; after 15 minutes): 52%
- difference in rotational period between bacteria treated above and below the MIC (uropathogenic E. coli [4]; within 25 minutes): 100%
- MIC as determined with the Vitek 2 system ([1]; isolate of the droplet microfluidic experiments): 1 µg/mL
- clinical (reference) MIC as determined with Vitek 2 ([1]; isolate of the magnetic particle cluster experiments (FIGS. 47a-b)): 2 µg/mL
- MIC measured with AMBR clusters (uropathogenic E. coli [2]): 2 µg/mL
- minimum inhibitory concentration (MIC) from AMBR growth curves (E. coli [5]): 2 µg/mL
